# Source: patent US6960610B2, “Use of glycogen phosphorylase inhibitors for treatment of cardiovascular diseases” (Novo Nordick, A/S, priority 2002, dated 2005)
# What was measured:
# heart tissue glycogen = assay: Glycogen content of heart tissue following global ischemia; details: in the presence of 0.4 μg/ml compound
# Procedure: Method: The glycogen contents of freeze-clamped heart samples were determined enzymatically as μmol of glycosyl units per gram wet weight after boiling the tissue in 0.4 N KOH and subsequent degradation of glycogen with amyloglycosidase
# [1] = test system: Rabbits (myocardial infarct); assay: Anaesthetised rabbit model of myocardial infarction induced by transient coronary artery occlusion; type: in vivo; details: 10 mg/kg b.i.d.; left coronary artery ligated 30 min, reperfusion 2 hours
# Procedure: Method: Rabbits were anaesthetized and mechanically ventilated with oxygen enriched air. A thoracotomy was performed and an infarct was produced by ligating the left coronary artery for 30 min. After 30 min. the heart was reperfused for 2 hours. The heart was excited and reperfused in Langendorff mode. The coronary artery was reoccluded and the heart was perfused with ink to delineate the area at risk. The heart was removed and cut into 2 mm slices and stained with triphenyl tetrazolium chloride. The area at risk and the infarct size was determined by planimetry.
# [2] = test system: isolated perfused rabbit hearts; assay: Ischemia induced arrhythmia in the isolated perfused rabbit heart (Langendorff); details: 0.4 μg/ml, n=7
# Procedure: The model evaluates the effect of a test compound on ischemia induced arrhythmia in isolated perfused rabbit hearts. The hearts were excised from rabbits and perfused via an aortic canula in a Langendorff set-up equipped with ECG and MAP electrodes. Global normotherm ischemia was induced by turning off the perfusion for 30 min. After 30 min the heart was reperfused and the total duration of arrhythmia was determined. Furthermore, ECG and surface monophasic action potentials (MAPS) were scored to describe the severity of ischemic damage.
smiles,measurement,setting,value
"OC[C@H]1NC[C@@H](O)[C@@H]1O [(2R,3R,4R)-3,4dihydroxy-2-hydroxymethylpyrrolidine]",glycogen content before ischemia,heart tissue glycogen; starting value,16.9±1.5 glycosyl units/g wet weight
same,glycogen content after 30 min. of global ischemia,heart tissue glycogen; without compound 2.6±0.8,6.9±1.1 glycosyl units/g wet weight
same,reduction of infarct size compared to untreated rabbits,[1],45%
same,MAP score,"[2]; 30 min global ischemia, reperfusion, without compound 2.3±0.3",0.9±0.1
same,ECG score,"[2]; 30 min global ischemia, reperfusion, without compound 2.4±0.2",0.7±0.3
same,average arrhythmia length following reperfusion,"[2]; 30 min global normotherm ischemia, then reperfusion, without compound 18.0±5.6",0.0 ± 0.0 min
